System: PK1 neuroblastoma cells exposed to TPrP
Experiment: cells
Settings: Neuroblastoma cell, 96 h, read-out: TPrP EC50

In the case of `Cc1ccc(-c2n[nH]c(-c3ccccc3)n2)cc1S(=O)(=O)N1CCOCC1` [SR-25604-2], the EC50 is reported as 40 nM.

`O=S(=O)(c1cc(-c2nnc(-c3ccccc3)[nH]2)ccc1C(F)(F)F)N1CCOCC1` [SR-28125, 4-((5-(5-Phenyl-4H-1,2,4-triazol-3-yl)-2-(trifluoromethyl)phenyl)sulfonyl) morpholine] was tested, and the EC50 was 30 nM.

`O=S(=O)(c1ccc(-c2nnc(-c3ccccc3)[nH]2)cc1C(F)(F)F)N1CCOCC1` [SR-26444, 4-((4-(5-Phenyl-4H-1,2,4-triazol-3-yl)-2-(trifluoromethyl)phenyl)sulfonyl) morpholine] gave an EC50 of over 320 nM.

In the case of `Cc1ccc(-c2nnc(-c3ccc(Br)cc3)[nH]2)cc1S(=O)(=O)N1CCOCC1` [SR-28144, 4-((5-(5-(4-Bromophenyl)-4H-1,2,4-triazol-3-yl)-2-methylphenyl)sulfonyl) morpholine], the EC50 is reported as 40 nM.

With `Cc1ccc(-c2nnc(-c3ccccc3)[nH]2)cc1S(=O)(=O)N1C[C@H]2COC[C@H]2C1` [SR-32404, (3aR,6aS)-5-((2-Methyl-5-(5-phenyl-4H-1,2,4-triazol-3-yl)phenyl)sulfonyl) hexahydro-1H-furo[3,4-c]pyrrole] the EC50 was 800 nM.

`Cc1ccc(-c2cnc3ccccn23)cc1S(=O)(=O)N1CCOCC1` [SR-27444, 4-((5-(Imidazo[1,2-a]pyridin-3-yl)-2-methylphenyl)sulfonyl)morpholine] gave an EC50 of over 320 nM.

For `Cc1ccc(-c2n[nH]c3ccccc23)cc1S(=O)(=O)N1CCOCC1` [SR-27564, 4-((5-(1H-Indazol-3-yl)-2-methylphenyl)sulfonyl)morpholine], the EC50 was 135 nM.

For `Cc1ccc(-c2nnc(-c3ccccc3)[nH]2)cc1S(=O)(=O)N1CCC2(CC1)OCc1ccccc12` [SR-32984, 1′-((2-Methyl-5-(5-phenyl-4H-1,2,4-triazol-3-yl)phenyl)sulfonyl)-3H-spiro[isobenzofuran-1,4′-piperidine]], the EC50 was over 1500 nM.

With `O=S(=O)(c1cc(-c2nnc(-c3ccccc3)[nH]2)ccn1)N1CCOCC1` [SR-28004, 4-((4-(5-Phenyl-4H-1,2,4-triazol-3-yl)pyridin-2-yl)sulfonyl)morpholine] the EC50 was over 1200 nM.

`N#Cc1ccc(-c2nnc(-c3ccccc3)[nH]2)cc1S(=O)(=O)N1CCOCC1` [SR-27504, 2-(Morpholinosulfonyl)-4-(5-phenyl-4H-1,2,4-triazol-3-yl)benzonitrile] gave an EC50 of over 320 nM.

Compound `Cc1cc(C)c(S(=O)(=O)N2CCN(CCO)CC2)cc1-c1nnc(-c2ccccc2)[nH]1` [SR-34778, 2-(4-((2,4-Dimethyl-5-(5-phenyl-4H-1,2,4-triazol-3-yl)phenyl)sulfonyl)piperazin-1-yl)ethan-1-ol] has an EC50 of 13 nM.

Compound `Cc1ccc(-c2nnc(-c3ccccc3)[nH]2)cc1S(=O)(=O)N1CCOCC1CO` (stereo not drawn) [SR-32945, (4-((2-Methyl-5-(5-phenyl-4H-1,2,4-triazol-3-yl)phenyl)sulfonyl)morpholin-3-yl)methanol] has an EC50 of 300 nM.

`Cc1ccc(-c2nnc(-c3ccccc3)[nH]2)cc1S(=O)(=O)N1CC(O)C1` [SR-32944, 1-((2-Methyl-5-(5-phenyl-4H-1,2,4-triazol-3-yl)phenyl)sulfonyl)azetidin-3-ol] was tested, and the EC50 was 15 nM.

Compound `Cc1c(F)cc(-c2nnc(-c3ccccc3)[nH]2)cc1S(=O)(=O)N1CCN(CCO)CC1` [SR-33604, 2-(4-((3-Fluoro-2-methyl-5-(5-phenyl-4H-1,2,4-triazol-3-yl)phenyl)sulfonyl)piperazin-1-yl)ethan-1-ol] has an EC50 of 90 nM.

Compound `Cc1ccc(NCc2ccncc2)cc1S(=O)(=O)N1CCOCC1` [SR-25464, 4-Methyl-3-(morpholinosulfonyl)-N-(pyridin-4-ylmethyl)aniline] has an EC50 of over 320 nM.

`Cc1ccc(-c2ccnc(Cl)c2)cc1S(=O)(=O)N1CCN(CC(C)O)CC1` (stereo not drawn) [SR-35464, 1-(4-((5-(2-Chloropyridin-4-yl)-2-methylphenyl)sulfonyl)piperazin-1-yl)propan-2-ol] was tested, and the EC50 was 800 nM.

`Cc1ccc(-c2ccnc(Cl)c2)cc1S(=O)(=O)N1CCN(CCF)CC1` [SR-35017, 1-((5-(2-Chloropyridin-4-yl)-2-methylphenyl)sulfonyl)-4-(2-fluoroethyl) piperazine] showed an EC50 of 900 nM.

With `Cc1ccc(-c2nnc(-c3ccccc3)[nH]2)cc1S(=O)(=O)N1CCC(O)(c2ccccc2)CC1` [SR-32784, 1-((2-Methyl-5-(5-phenyl-4H-1,2,4-triazol-3-yl)phenyl)sulfonyl)-4-phenyl piperidin-4-ol] the EC50 was over 1500 nM.

`Cc1ccc(-c2ccnc(Cl)c2)cc1S(=O)(=O)N1CCNCC1` [SR-35422, 1-((5-(2-Chloropyridin-4-yl)-2-methylphenyl)sulfonyl)piperazine] was tested, and the EC50 was under 5 nM.

For `Cc1ccc(-c2nnc(-c3ccccc3)[nH]2)cc1S(=O)(=O)NC(C)(C)CO` [SR-32184, N-(1-hydroxy-2-methylpropan-2-yl)-2-methyl-5-(5-phenyl-4H-1,2,4-triazol-3-yl)benzenesulfonamide], the EC50 was 180 nM.

With `Cc1ccc(-c2nnc(-c3ccccc3)[nH]2)cc1S(=O)(=O)NC1CCC2(CC1)OCCO2` [SR-32764, 2-Methyl-5-(5-phenyl-4H-1,2,4-triazol-3-yl)-N-(1,4-dioxaspiro[4.5]decan-8-yl)benzenesulfonamide] the EC50 was over 1500 nM.

In the case of `Cc1ccc(-c2nnc(-c3ccccc3)[nH]2)cc1S(=O)(=O)N1CCN(C2COC2)CC1` [SR-32324, 1-((2-Methyl-5-(5-phenyl-4H-1,2,4-triazol-3-yl)phenyl)sulfonyl)-4-(oxetan-3-yl)piperazine], the EC50 is reported as 900 nM.

`Cc1ccc(-c2nnc(-c3ccccc3)[nH]2)cc1S(=O)(=O)NCCN1CCOCC1` [SR-31824, 2-Methyl-N-(2-morpholinoethyl)-5-(5-phenyl-4H-1,2,4-triazol-3-yl)benzene sulfonamide] was tested, and the EC50 was over 1500 nM.

For `Cc1ccc(-c2nnc(-c3ccccc3)[nH]2)cc1S(=O)(=O)N1CCC2(CC1)OCCO2` [SR-32705, 8-((2-Methyl-5-(5-phenyl-4H-1,2,4-triazol-3-yl)phenyl)sulfonyl)-1,4-dioxa-8-azaspiro[4.5]decane], the EC50 was over 1500 nM.

In the case of `Cc1ccc(-c2ccn(-c3ccccc3)c2)cc1S(=O)(=O)N1CCOCC1` [SR-29084, 4-((2-Methyl-5-(1-phenyl-1H-pyrrol-3-yl)phenyl)sulfonyl)morpholine], the EC50 is reported as 600 nM.

In the case of `Cc1ccc(-c2cccc3[nH]ncc23)cc1S(=O)(=O)N1CCOCC1` [SR-27484, 4-((5-(1H-Indazol-4-yl)-2-methylphenyl)sulfonyl)morpholine], the EC50 is reported as over 320 nM.

For `CC(=O)NCCNc1cc(-c2ccc(C)c(S(=O)(=O)N3CCOCC3)c2)ccn1` [SR-25104, N-(2-((4-(4-methyl-3-(morpholinosulfonyl)phenyl)pyridin-2-yl)amino)ethyl) acetamide], the EC50 was 100 nM.

`Cc1cc(F)c(-c2ccnc(Cl)c2)cc1S(=O)(=O)N1CCN(CCO)CC1` [SR-35015, 2-(4-((5-(2-Chloropyridin-4-yl)-4-fluoro-2-methylphenyl)sulfonyl)piperazin-1-yl)ethan-1-ol] gave an EC50 of 50 nM.

`Cc1ccc(-c2nnc(-c3ccccc3)[nH]2)cc1S(=O)(=O)N1CCC2(CC1)OCCCO2` [SR-32744, 9-((2-Methyl-5-(5-phenyl-4H-1,2,4-triazol-3-yl)phenyl)sulfonyl)-1,5-dioxa-9-azaspiro[5.5]undecane] showed an EC50 of over 1500 nM.

With `Cc1ccc(-c2nnc(-c3ccccc3)[nH]2)cc1S(=O)(=O)N1CCC(O)C1` (stereo not drawn) [SR-32284, 1-((2-Methyl-5-(5-phenyl-4H-1,2,4-triazol-3-yl)phenyl)sulfonyl)pyrrolidin-3-ol] the EC50 was 550 nM.

From US20240124466A1, “COMPOUNDS AND USE THEREOF FOR TREATMENT OF NEURODEGENERATIVE, DEGENERATIVE AND METABOLIC DISORDERS” (VOVA IDA THERAPEUTICS, INC., priority 2020, published 2024)
